Reference: paper PMC9573387, “The First 5′-Phosphorylated 1,2,3-Triazolyl Nucleoside Analogues with Uracil and Quinazoline-2,4-Dione Moieties: A Synthesis and Antiviral Evaluation” (Molecules, 2022)
Where a name gives a salt, the structure may show the parent alone. Read-outs that look alike come from different tables or passages of the source.

Experiments:
HIV = settings: cited from earlier work
[1] = tested on: recombinant HIV reverse transcriptases (RT); design: method as in PMID 17434736; settings: cited from earlier work
wild-type HIV RT = tested on: wild-type HIV RT; design: method as in PMID 17434736; settings: cited from earlier work
[2] = tested on: A/Puerto Rico/8/34 (H1N1) influenza virus; assay: microbe, parasite or virus in culture; type: cell-based; settings: for IC50: 48 h, A/Puerto Rico/8/34 (H1N1), MDCK cells, read-out: IC50 (50% inhibition of virus replication)
in vitro = settings: dog
MDCK (ATCC CCL-34) cells [3] = tested on: MDCK (ATCC CCL-34) cells
[4] = tested on: A/Puerto Rico/8/34 (H1N1) influenza virus; design: method as in PMID 32930935; settings: parent nucleoside analogues, cited from earlier work; for IC50: A/Puerto Rico/8/34 (H1N1), read-out: IC50 (50% inhibition of virus replication)
MDCK (ATCC CCL-34) cells [5] = settings: read-out: CC50 (median cytotoxic concentration); parent nucleoside analogues; cited from earlier work

Nc1nc(=O)n([C@H]2C[C@@H](CO)C2)cc1F [5-fluoro-1-[cis-3-(hydroxymethyl)-cyclobutyl]-cytosine]
Anti-HIV activity, inactive up to (HIV; in vitro): > 100 µM

Nc1nc(=O)n([C@H]2C[C@@H](COP(=O)(O)OP(=O)(O)OP(=O)(O)O)C2)cc1F [5′-triphosphate of 5-fluoro-1-[cis-3-(hydroxymethyl)-cyclobutyl]-cytosine]
IC50 [1]: 4.7 µM
IC50 (wild-type HIV RT): 6.9 µM

CCOP(=O)(OCC)OC[C@H]1O[C@@H](n2cc(Cn3ccc(=O)[nH]c3=O)nn2)[C@H](O)[C@@H]1O [Compound 11a]
IC50 ([2]; Influenza A virus, H1N1, MDCK): 434 ± 39 µM
CC50 (in vitro): > 650 µM

CCOP(=O)(OCC)OC[C@H]1O[C@@H](n2cc(Cn3c(=O)[nH]c(=O)c4ccccc43)nn2)[C@H](O)[C@@H]1O [Compound 11b]
IC50 ([2]; Influenza A virus, H1N1, MDCK): 411 ± 51 µM
CC50 (in vitro): > 587 µM

CCOP(=O)(OCC)OC[C@H]1O[C@@H](n2cc(CCCCn3ccc(=O)[nH]c3=O)nn2)[C@H](O)[C@@H]1O [Compound 12a, 1-[4-(2,4-dioxo-pyrimidine-1-yl-butyl)-1,2,3-triazol-1-yl]--D-ribofuranose-5-yl diethyl phosphate]
Antiviral activity against H1N1 (A/PR/8/34) influenza virus, in words [2]: inactive
IC50 [2]: 250 ± 22 µM
IC50 ([2]; Influenza A virus, H1N1, MDCK): > 180 µM
CC50 (in vitro): > 596 µM

CCOP(=O)(OCC)OC[C@H]1O[C@@H](n2cc(CCCCn3c(=O)[nH]c(=O)c4ccccc43)nn2)[C@H](O)[C@@H]1O [Compound 12b]
IC50 ([2]; Influenza A virus, H1N1, MDCK): > 542 µM
CC50 (in vitro): > 542 µM

O=c1ccn(Cc2cn([C@@H]3O[C@H](COP(=O)(Oc4ccccc4)Oc4ccccc4)[C@@H](O)[C@H]3O)nn2)c(=O)[nH]1 [Compound 13a]
IC50 ([2]; Influenza A virus, H1N1, MDCK): 121 ± 7 µM
CC50 (in vitro): > 538 µM

O=c1[nH]c(=O)n(Cc2cn([C@@H]3O[C@H](COP(=O)(Oc4ccccc4)Oc4ccccc4)[C@@H](O)[C@H]3O)nn2)c2ccccc12 [Compound 13b]
Antiviral activity exceeding that of the parent compound ([2]; IC50 versus parent compound 33b): 2 times
IC50 ([2]; Influenza A virus, H1N1, MDCK): 17.9 ± 3 µM
Increase of selectivity index over the parent compound ([2]; SI versus parent compound 33b): 7 times
CC50 (in vitro): > 494 µM

O=c1ccn(CCCCc2cn([C@@H]3O[C@H](COP(=O)(Oc4ccccc4)Oc4ccccc4)[C@@H](O)[C@H]3O)nn2)c(=O)[nH]1 [Compound 14a]
Antiviral activity against H1N1 (A/PR/8/34) influenza virus, in words [2]: inactive
IC50 [2]: 183 ± 15 µM
IC50 ([2]; Influenza A virus, H1N1, MDCK): > 180 µM
CC50 (in vitro): > 500 µM

O=c1[nH]c(=O)n(CCCCc2cn([C@@H]3O[C@H](COP(=O)(Oc4ccccc4)Oc4ccccc4)[C@@H](O)[C@H]3O)nn2)c2ccccc12 [Compound 14b]
SI (selectivity index, CC50/IC50 ratio) [2]: 2
IC50 ([2]; Influenza A virus, H1N1, MDCK): 51 ± 4 µM
Increase of cytotoxicity over the parent compound (MDCK (ATCC CCL-34) cells [3]; CC50 versus parent compound 34b): 7 fold
CC50 (in vitro): 98 ± 6 µM

COC(=O)[C@H](C)NP(=O)(OC[C@H]1O[C@@H](n2cc(Cn3ccc(=O)[nH]c3=O)nn2)[C@H](O)[C@@H]1O)Oc1ccccc1 (stereo partly shown) [Compound 17a]
IC50 ([2]; Influenza A virus, H1N1, MDCK): 25 ± 4 µM
CC50 (in vitro): > 530 µM

COC(=O)[C@H](C)NP(=O)(OC[C@H]1O[C@@H](n2cc(Cn3c(=O)[nH]c(=O)c4ccccc43)nn2)[C@H](O)[C@@H]1O)Oc1ccccc1 (stereo partly shown) [Compound 17b]
IC50 ([2]; Influenza A virus, H1N1, MDCK): > 487 µM
CC50 (in vitro): > 487 µM

COC(=O)[C@H](C)NP(=O)(OC[C@H]1O[C@@H](n2cc(CCCCn3ccc(=O)[nH]c3=O)nn2)[C@H](O)[C@@H]1O)Oc1ccccc1 (stereo partly shown) [Compound 18a]
Antiviral activity against H1N1 (A/PR/8/34) influenza virus, in words [2]: inactive
CC50 (in vitro): > 463 µM

COC(=O)[C@H](C)NP(=O)(OC[C@H]1O[C@@H](n2cc(CCCCn3c(=O)[nH]c(=O)c4ccccc43)nn2)[C@H](O)[C@@H]1O)Oc1ccccc1 (stereo partly shown) [Compound 18b]
IC50 ([2]; Influenza A virus, H1N1, MDCK): > 456 µM
CC50 (in vitro): > 456 µM

O=c1ccn(Cc2cn([C@@H]3O[C@H](CO[PH](=O)O)[C@@H](O)[C@H]3O)nn2)c(=O)[nH]1 [Compound 23a, 1-[4-(2,4-dioxo-pyrimidine-1-yl-methyl)-1,2,3-triazol-1-yl]--D-ribofuranose-5-yl H-phosphonate triethylammonium salt]
IC50 ([2]; Influenza A virus): 204 ± 28 µM
CC50 (in vitro): > 612 µM

O=c1[nH]c(=O)n(Cc2cn([C@@H]3O[C@H](CO[PH](=O)O)[C@@H](O)[C@H]3O)nn2)c2ccccc12 [Compound 23b]
IC50 ([2]; Influenza A virus): 176 ± 21 µM
CC50 (in vitro): > 555 µM

O=c1ccn(CCCCc2cn([C@@H]3O[C@H](CO[PH](=O)O)[C@@H](O)[C@H]3O)nn2)c(=O)[nH]1 [Compound 24a]
Antiviral activity against H1N1 (A/PR/8/34) influenza virus, in words [2]: inactive
IC50 ([2]; Influenza A virus): 218 ± 32 µM
CC50 (in vitro): > 564 µM

O=c1[nH]c(=O)n(CCCCc2cn([C@@H]3O[C@H](CO[PH](=O)O)[C@@H](O)[C@H]3O)nn2)c2ccccc12 [Compound 24b]
IC50 ([2]; Influenza A virus, H1N1, MDCK): > 516 µM
CC50 (in vitro): > 516 µM

O=c1ccn(Cc2cn([C@@H]3O[C@H](COP(=O)(O)O)[C@@H](O)[C@H]3O)nn2)c(=O)[nH]1 [Compound 25a]
IC50 ([2]; Influenza A virus, H1N1, MDCK): > 494 µM
CC50 (in vitro): > 494 µM

O=c1[nH]c(=O)n(Cc2cn([C@@H]3O[C@H](COP(=O)(O)O)[C@@H](O)[C@H]3O)nn2)c2ccccc12 [Compound 25b]
IC50 ([2]; Influenza A virus): 159 ± 19 µM
CC50 (in vitro): > 458 µM

O=c1ccn(CCCCc2cn([C@@H]3O[C@H](COP(=O)(O)O)[C@@H](O)[C@H]3O)nn2)c(=O)[nH]1 [Compound 26a]
Antiviral activity against H1N1 (A/PR/8/34) influenza virus, in words [2]: inactive
IC50 ([2]; Influenza A virus): 195 ± 26 µM
CC50 (in vitro): > 463 µM

O=c1[nH]c(=O)n(CCCCc2cn([C@@H]3O[C@H](COP(=O)(O)O)[C@@H](O)[C@H]3O)nn2)c2ccccc12 [Compound 26b]
IC50 ([2]; Influenza A virus): > 430 µM
CC50 (in vitro): > 430 µM

O=c1ccn(Cc2cn([C@@H]3O[C@H](CO)[C@@H](O)[C@H]3O)nn2)c(=O)[nH]1 [Compound 33a]
IC50 [4]: > 880 µM
Antiviral activity against H1N1 (A/PR/8/34) influenza virus, in words [4]: completely inactive
CC50 (MDCK (ATCC CCL-34) cells [5]): > 880 µM

O=c1[nH]c(=O)n(Cc2cn([C@@H]3O[C@H](CO)[C@@H](O)[C@H]3O)nn2)c2ccccc12 [Compound 33b]
SI (selectivity index, CC50/IC50 ratio) [2]: 3
IC50 [4]: 42 ± 5 µM

O=c1ccn(CCCCc2cn([C@@H]3O[C@H](CO)[C@@H](O)[C@H]3O)nn2)c(=O)[nH]1 [Compound 34a]
IC50 [4]: > 180 µM
Antiviral activity against H1N1 (A/PR/8/34) influenza virus, in words [4]: inactive
CC50 (MDCK (ATCC CCL-34) cells [5]): > 817 µM

O=c1[nH]c(=O)n(CCCCc2cn([C@@H]3O[C@H](CO)[C@@H](O)[C@H]3O)nn2)c2ccccc12 [Compound 34b]
IC50 [4]: 30 ± 4 µM
CC50 (MDCK (ATCC CCL-34) cells [5]): > 719 µM

CCC(CC)O[C@@H]1C=C(C(=O)O)C[C@H](N)[C@H]1NC(C)=O [Oseltamivir carboxylate, reference compound]
SI (selectivity index, CC50/IC50 ratio) [2]: >667
IC50 ([2]; Influenza A virus): 0.3 ± 0.06 µM
CC50 (in vitro): > 200 µM

COC(=O)[C@H](C)NP(=O)(OC[C@H]1O[C@@H](n2cc(C)c(=O)[nH]c2=O)C[C@@H]1N=[N+]=[N-])Oc1ccccc1 (stereo partly drawn) [ProTide-ZDV, 5′-(phenylmethoxy-L-alaninyl)phosphate of Zidovudine]
Better activity against HIV than the parent nucleoside analogue (HIV; ProTide versus parent): more than 100 times

NC(=O)c1ncn([C@@H]2O[C@H](CO)[C@@H](O)[C@H]2O)n1 [Ribavirin, reference compound]
SI (selectivity index, CC50/IC50 ratio) [2]: 3
IC50 ([2]; Influenza A virus): 31 ± 9 µM
CC50 (MDCK (ATCC CCL-34) cells [3]; dog): 94 ± 48 µM

CC(N)C12CC3CC(CC(C3)C1)C2 (stereo not shown) [Rimantadine, reference compound]
SI (selectivity index, CC50/IC50 ratio) [2]: 4
IC50 ([2]; Influenza A virus, H1N1, MDCK): 77 ± 8 µM
CC50 (MDCK (ATCC CCL-34) cells [3]; read-out: CC50 (median cytotoxic concentration), MDCK cells, MTT, concentration causing 50% cell death): 340 ± 16 µM
